{"source": "paper PMC4382562", "about": "(Current Chemical Genomics and Translational Medicine, 2015)", "origin": "cited, not measured here", "system": "iCell Neurons", "conditions": "read-out: Neurite outgrowth IC50 (high content image-based analysis), previously reported", "data": [{"smiles": "CCCCCC[C@H]1C(=O)O[C@H](C)[C@H](NC(=O)c2cccc(NC=O)c2O)C(=O)O[C@@H](C)[C@@H]1OC(=O)CC(C)C", "note": "[Antimycin A]", "values": [{"measurement": "IC50", "value": "~13", "unit": "µM"}]}, {"smiles": "CN[C@@H]1C[C@H]2O[C@@](C)([C@@H]1OC)n1c3ccccc3c3c4c(c5c6ccccc6n2c5c31)C(=O)NC4", "note": "[Staurosporine]", "values": [{"measurement": "IC50", "value": "~0.9", "unit": "µM"}]}]}
